# Assay results from EP4796130A1, “ANTI-TISSUE FACTOR ANTIBODY-DRUG CONJUGATE COMPRISING CAMPTOTHECIN DERIVATIVE” (Celltrion, Inc., priority 2023, dated 2025).
# Like-named read-outs stand apart in the source and are kept apart here. Where a SMILES comes first, the peptide text is derived from it. [ ]: non-standard residue; d: D form. The star is where a group is joined. Dolaproine = CO[C@@H]([C@@H]1CCCN1)[C@@H](C)C(=O)O; Dil = CC[C@H](C)[C@H](NC)[C@@H](CC(=O)O)OC; X1 = C[C@@H](N*)[C@@H](O)c1ccccc1; NMeV = CN[C@H](C(=O)O)C(C)C
# What was measured:
# Assay type in all cases: cell-based
# [1] = tested on: KYSE-520 (an esophageal cancer cell line); experiment: In-vitro cell viability assay (CellTiter-Glo); conditions: Homo sapiens
# [2] = tested on: MCF-7 (a breast cancer cell line); experiment: In-vitro cell viability assay (CellTiter-Glo); conditions: MCF7a, 144 h
# [3] = tested on: HPAF-II (a pancreatic cancer cell line); experiment: In-vitro cell viability assay (CellTiter-Glo); conditions: Homo sapiens, 144 h
# [4] = tested on: T47D (a breast cancer cell line); experiment: cells; conditions: Homo sapiens, 144 h
# [5] = tested on: A431 (a skin cancer cell line); experiment: In-vitro cell viability assay (CellTiter-Glo); conditions: Homo sapiens, A-431, 144 h
# [6] = tested on: Caski (a cervical cancer cell line); experiment: In-vitro cell viability assay (CellTiter-Glo); conditions: Homo sapiens, Ca-Ski, 144 h
# [7] = 6 days incubation, read-out: IC50
Compound,"IC50 ([1]; 144 h, KYSE-520, 6 days incubation, read-out: IC50)","IC50 ([2]; MCF-7, 6 days incubation, read-out: IC50)","IC50 [3, 7]","IC50 [4, 7]","IC50 ([5]; A431, 6 days incubation, read-out: IC50)","IC50 ([6]; Caski, 6 days incubation, read-out: IC50)","IC50 ([1]; KYSE-520, 144 h)",IC50 [2],IC50 [3],IC50 [4],IC50 [5],IC50 [6]
"CC[C@H](C)[C@@H]([C@@H](CC(=O)N1CCC[C@H]1[C@H](OC)[C@@H](C)C(=O)N[C@H](C)[C@@H](O)c1ccccc1)OC)N(C)C(=O)[C@@H](NC(=O)[C@@H](NC)C(C)C)C(C)C [MMAE, monomethyl auristatin E] (H-[NMeV]V[Dil][Dolaproine]-X1)",0.12 nM,0.82 nM,0.045 nM,0.16 nM,0.032 nM,0.034 nM,,,,,,
CC[C@@]1(O)C(=O)OCc2c1cc1n(c2=O)Cc2c-1nc1cc3c(c4c1c2[C@@H](NC(=O)[C@@H](C)O)CC4)OCO3 [PBX-7016],,,,,,,2.06 nM,6.02 nM,2.87 nM,0.46 nM,1.94 nM,0.75 nM
